# Assay results taken from patent US7078428B2, “Isoindolone derivatives, preparation process and intermediates of this process, their use as medicaments, and pharmaceutical compositions comprising them” (Sanofi-Aventis Deutschland GmbH, priority 2002, dated 2006).
# Legend:
# NHE1 = biological target: T1, NHE1 (Homo sapiens, UniProt P19634); experiment: NHE inhibition FLIPR test (intracellular pH recovery, BCECF) in transfected LAP-1 cells; assay type: cell-based; settings: transfected cell line (parental LAP-1) expressing the NHE-1 subtype, pHi recovery after acidification
# T1 construct: expressed in transfected cells
# T1 sequence (P19634 whole entry, species assumed): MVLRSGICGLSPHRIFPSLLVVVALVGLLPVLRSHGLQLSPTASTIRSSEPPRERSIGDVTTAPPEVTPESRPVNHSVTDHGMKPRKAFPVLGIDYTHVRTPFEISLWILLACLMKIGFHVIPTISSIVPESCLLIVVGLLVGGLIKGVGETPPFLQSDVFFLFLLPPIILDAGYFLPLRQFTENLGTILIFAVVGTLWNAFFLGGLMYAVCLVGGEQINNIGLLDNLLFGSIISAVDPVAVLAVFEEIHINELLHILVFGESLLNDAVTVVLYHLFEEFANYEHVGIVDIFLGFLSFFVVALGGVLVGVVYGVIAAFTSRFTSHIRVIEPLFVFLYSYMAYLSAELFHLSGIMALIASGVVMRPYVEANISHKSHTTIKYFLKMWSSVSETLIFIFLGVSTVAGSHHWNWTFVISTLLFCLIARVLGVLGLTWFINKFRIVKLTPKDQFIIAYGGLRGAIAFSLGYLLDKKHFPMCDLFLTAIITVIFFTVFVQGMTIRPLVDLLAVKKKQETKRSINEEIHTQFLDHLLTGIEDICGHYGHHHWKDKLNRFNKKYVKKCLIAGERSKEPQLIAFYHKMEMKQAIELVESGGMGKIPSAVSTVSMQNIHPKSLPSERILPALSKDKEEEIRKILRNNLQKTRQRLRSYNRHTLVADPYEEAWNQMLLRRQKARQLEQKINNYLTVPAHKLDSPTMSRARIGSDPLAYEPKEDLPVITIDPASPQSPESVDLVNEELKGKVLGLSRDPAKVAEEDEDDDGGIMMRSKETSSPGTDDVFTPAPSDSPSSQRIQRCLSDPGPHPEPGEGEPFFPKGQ
# Protocol: The NHE inhibitory activities (IC50 values) of the compounds according to the invention were determined by a FLIPR test.
# The test is performed in the FLIPR (Fluorescent Imaging Plate Reader) equipped with clear-bottomed and black-walled 96-well microtitration plates.
# The growth medium for the transfected cells (Iscove +10% foetal calf serum) also comprises G418 as selection antibiotic to ensure the presence of transfected sequences.
# The actual test begins by eliminating the growth medium and adding 100 μl of loading buffer per well (5 μM of BCECF-AM [2′,7′-bis(2-carboxyethyl)-5-(6)-carboxyfluoresceine acetoxymethyl ester] in 20 mM of NH4Cl, 115 mM of choline chloride, 1 mM of CaCl2, 5 mM of KCl, 20 mM of HEPES and 5 mM of glucose; pH 7.4 (adjusted with KOH). The cells are then incubated for 20 minutes at 37° C. This incubation results in the loading of the fluorescent dye into the cells, the fluorescence intensity of which depends on the pHi, and on the NH4Cl, which results in a slight basification of the cells.
# The precursor BCECF-AM, a non-fluorescent dye, is, as an ester, capable of crossing the membrane. The actual dye, which is incapable of crossing the membrane, is released inside the cell by esterases.
# After this 20-minute incubation, the loading buffer, which comprises NH4Cl and free BCECF-AM, is removed by washing three times in the cell washing device (Tecan Columbus), each wash being performed with 400 μl of washing buffer (133.8 mM of choline chloride, 4.7 mM of KCl, 1.25 mM of MgCl2, 1.25 mM of CaCl2, 0.97 mM of K2HPO4, 0.23 mM of KH2PO4, 5 mM of HEPES and 5 mM of glucose; pH 7.4 (adjusted with KOH)). The residual volume remaining in the wells is 90 μl (possibly between 50 and 125 μl). This washing step removes the free BCECF-AM and results in an intracellular acidification (pHi of 6.3-6.4) due to the removal of the external ammonium ions.
# As the equilibrium of the intracellular ammonium with the aqueous ammonia and the protons, by removal of the extracellular ammonium and by the subsequent immediate crossing of the aqueous ammonia across the cell membrane, is disrupted, the washing process results in intracellular protons remaining, which is the cause of the intracellular acidification. This acidification can result finally in the death of the cells if it lasts long enough. It is important here for the washing buffer to be free of sodium (<1 mM), otherwise the extracellular sodium ions would result in an immediate increase in the pHi on account of the activity of the cloned NHE isoforms. It is also important for all the buffers used (loading buffer, washing buffer and regeneration buffer) not to contain any HCO3-ions, otherwise the presence of bicarbonate would result in the activation of bicarbonate-dependent systems that disrupt the pHi regulation, which systems are contained in the LAP-1 parental cell line.
# The microtiter plates containing acidified cells are then transferred (up to 20 minutes after the acidification) to the FLIPR. In the FLIPR, the intracellular fluorescent dye is activated with light of a wavelength of 488 nm, which is generated by an argon laser, and the measuring parameters (laser power, illumination time and diaphragm of the […] camera integrated into the FLIPR) are chosen such that the average value of the fluorescent signal per well is between 30,000 and 35,000 relative fluorescence units.
# The actual measurement in the FLIPR starts with a photograph being taken by the CCD camera every two seconds under software control. After 10 seconds, the increase in the intracellular pH is initiated by adding 90 μl of regeneration buffer (133.8 mM of NaCl, 4.7 mM of KCl, 1.25 mM of MgCl2, 1.25 mM of CaCl2, 0.97 mM of K2HPO4, 0.23 mM of KH2PO4, 10 mM of HEPES and 5 mM of glucose; pH 7.4 (adjusted with NaOH)) using a 96-well pipette device incorporated into the FLIPR. Some wells, to which is added pure regeneration buffer, serve as positive controls (100% NHE activity). […]
melting point [°C],IC50 (NHE1) [nM],Compound
229,63,"NC(N)=NC(=O)CC1c2ccccc2C(=O)N1CC1CC1 (stereo not drawn) [Example 8, N-[2-(2-Cyclopropylmethyl-3-oxo-2,3-dihydro-1H-isoindol-1-yl)acetyl]guanidine]"
262 to 263,11,"CC(C)CN1C(=O)c2cc(C(C)(C)C)ccc2C1CC(=O)N=C(N)N (stereo not drawn) [Example 11, N-[2-(5-tert-Butyl-2-isobutyl-3-oxo-2,3-dihydro-1H-isoindol-1-yl)acetyl]guanidine]"
224,102,"CC(C)CN1C(=O)c2cc(C(F)(F)F)ccc2C1CC(=O)N=C(N)N (stereo not drawn) [Example 14, N-[2-(2-Isobutyl-3-oxo-5-trifluoromethyl-2,3-dihydro-1H-isoindol-1-yl)-acetyl]-guanidine]"
266,25,"Cc1ccc2c(c1)C(=O)N(CC(C)C)C2CC(=O)N=C(N)N (stereo not drawn) [Example 34, N-[2-(2-Isobutyl-5-methyl-3-oxo-2,3-dihydro-1H-isoindol-1-yl)acetyl]guanidine]"
154,26,"CC(C)CN1C(=O)c2cc(Cl)c(Cl)cc2C1CC(=O)N=C(N)N (stereo not drawn) [Example 18, N-[2-(5,6-Dichloro-2-isobutyl-3-oxo-2,3-dihydro-1H-isoindol-1-yl)acetyl]guanidine]"
212,11,"CC(C)CN1C(=O)c2c(F)ccc(F)c2C1CC(=O)N=C(N)N (stereo not drawn) [Example 19, N-[2-(4,7-Difluoro-2-isobutyl-3-oxo-2,3-dihydro-1H-isoindol-1-yl)acetyl]guanidine]"
229,92,"CCCN1C(=O)c2ccccc2C1CC(=O)N=C(N)N (stereo not drawn) [Example 5, N-[2-(3-Oxo-2-propyl-2,3-dihydro-1H-isoindol-1-yl)acetyl]guanidine]"
223,211,"CCN1C(=O)c2ccccc2C1CC(=O)N=C(N)N (stereo not drawn) [Example 6, N-[2-(2-Ethyl-3-oxo-2,3-dihydro-1H-isoindol-1-yl)acetyl]guanidine]"
154,16,"CC(C)CN1C(=O)c2ccc(C(F)(F)F)cc2C1CC(=O)N=C(N)N (stereo not drawn) [Example 15, N-[2-(2-Isobutyl-3-oxo-6-trifluoromethyl-2,3-dihydro-1H-isoindol-1-yl)-acetyl]guanidine]"
